From patent publication US7244614B2, “Fusion proteins and assays for molecular binding” (Cellomics, Inc., priority 2001, dated 2007)

What was measured:
Assay type in all cases: cell-based
[1] = test system: MAPK; assay: MAPK binding fusion protein (first variant, mutated n-myc NLS) redistribution in transfected HeLa cells, ArrayScan II; conditions: for inhibition of the change in distribution of the fusion protein: 2 hours pretreatment with 10 uM inhibitor, then PMA; for change in localization of the fusion protein to the cytoplasm upon activation: serum starved 24 h, PMA 1.5 nM or sorbitol 200 mM, 1 hour
Excerpt: In this example, a fusion protein for detecting the availability for specific binding of MAPK, the protein of interest, is based on the distribution of the fusion protein between the cytoplasm and nucleus. It is constructed such that the detection domain is a GFP, the first localization sequence is a mutated NLS from n-myc, the second localization sequence is an NES from MAPKAP2, and the binding domain is the MAPK binding domain from RSK-1. The NLS and MAPK binding domain are separated by 2 amino acids. Operationally, the binding of MAPK to the binding domain blocks the localization of this fusion protein into the nucleus. […] Contacting the cell with a compound that activates MAPK, such as PMA or serum, will activate MAPK by inducing a dissociation of MAPK from MEK1, thus making MAPK available for binding to the RSK-1 binding domain in the fusion protein, and will shift the distribution of the fusion protein from the nucleus to the cytoplasm.
As shown below, this fusion protein was constructed using a GFP, a mutated nuclear localization signal from n-myc, based on human n-myc (Genbank accession number Y00664), the sequence from Proline 315 to Alanine 361 of MAPKAP2 (Genbank accession number X76850), which includes a nuclear export signal (between D^328 to E^351, SEQ ID NO:317), and the MAPK binding domain from RSK1 spanning from S^718 to T^733 (Genbank accession number L07597).
(§1) Protocol: HeLa cells were transiently transfected with the fusion protein. Cells were serum starved for 24 hours prior to treatment. Cells were then exposed to PMA (1.5 nM) or sorbitol (200 mM) for 1 hour. For inhibitor treatment, cells were pretreated for 2 hours with 10 uM inhibitor, and then treated with PMA, in parallel with non-inhibitor-treated cells. Cells were then treated with 3.7% formaldehyde & Hoechst 33342 for 20 minutes to fix and stain the nuclei, and then washed. Data was collected on ArrayScan II® (Cellomics, Inc. Pittsburgh, Pa.). […] Most, if not all, of the fusion protein was affected. The change in distribution was inhibitable by pretreatment of 10 uM PD98059, a specific inhibitor of MAPK activation, but not by SB203580, a specific inhibitor of p38 MAPK activation. Second Variant Protocol: HeLa cells were transiently transfected with the fusion protein. Cells were serum starved for 24 hours prior to treatment. Cells were exposed to serum (20%) or PMA (200 nM) for 2 hours. Cells were then treated with 3.7% formaldehyde & Hoechst 33342 for 20 minutes to fix and stain the nuclei, and then washed. Data was collected on ArrayScan II® (Cellomics, Inc. Pittsburgh, Pa.).

[2] = test system: catalytic domain of cAMP-dependent protein kinase (cPKA); assay: cAMP-dependent protein kinase interaction fusion protein redistribution (nucleus/cytoplasm) in transfected HeLa cells, ArrayScan II; conditions: serum starved 24 h, forskolin 2 h or PMA 1 h
Excerpt: In this example, a fusion protein for detecting the availability for specific binding of the catalytic domain of cAMP-dependent protein kinase (cPKA), the protein of interest, is based on the distribution of the fusion protein between the cytoplasm and nucleus. It is constructed such that the detection domain is a GFP, the first localization domain is the NLS from SV40 large T-antigen, the second localization domain is the NES from MAPKAP2, and the binding domain is from CREB. The NLS and the binding domain are separated by 2 amino acids. The fusion protein is introduced into cells via DNA transfection or retrovirus infection. The catalytic domain cPKA binds to the regulatory domain of PKA (rPKA) in the absence of cAMP. With an increase in the concentration of cAMP, cPKA dissociates from rPKA, enabling cPKA to bind to the fusion protein. Operationally, the binding of cPKA to the binding domain blocks the localization of this fusion protein into the nucleus. […] The ratio of these intensities can be readily measured. This fusion protein can detect cPKA binding in either the nucleus or cytoplasm. Contacting the cell with a compound that causes a separation of cPKA from rPKA, such as forskolin, via an increase cAMP, will shift the distribution of the fusion protein from the nucleus to the cytoplasm. […]

[3] = test system: MAPK; assay: MAPK binding fusion protein (second variant, SV40 NLS) redistribution in transfected HeLa cells, ArrayScan II; conditions: serum starved 24 h, serum 20% or PMA 200 nM, 2 hours
Experimental: A variant of this MAPK binding fusion protein was also prepared. This fusion protein was constructed using a GFP, a nuclear localization signal from the SV 40 large T antigen (SEQ ID NO:145, Genbank accession number J02400), specifically P^126 to V^132, the sequence from Glutamic Acid 327 to Isoleucine 353 of MAPKAP2 (Genbank accession number X76850), which includes a nuclear export signal (between D^328 to E^351, SEQ ID NO:317), and the MAPK binding domain from RSK1, spanning from S^718 to T^733 (Genbank accession number L07597).
as §1, with “Second Variant Protocol: HeLa cells were transiently transfected with the fusion protein. Cells were serum starved for 24 hours prior to treatment. Cells were exposed to serum (20%) or PMA (200 nM) for 2 hours. Cells were then treated with 3.7% formaldehyde & Hoechst 33342 for 20 minutes to fix and stain the nuclei, and then washed. Data was collected on ArrayScan II® (Cellomics, Inc. Pittsburgh, Pa.).” left out

[4] = test system: c-Jun N-terminal kinase (JNK); assay: c-Jun N-terminal protein kinase fusion protein redistribution in transfected HeLa cells, ArrayScan II; conditions: for change in localization of the fusion protein to the cytoplasm upon activation: serum starved 24 h, anisomycin 500 nM, sorbitol 300 mM, TNF 100 ng/ml or staurosporine 1 uM, 1 hour
Excerpt: It is constructed such that the detection domain is a GFP, the first localization domain is a modified SV40 T antigen NLS, the second localization domain is an NES from MAPKAP2, and the binding domain is the JNK binding domain from c-jun. […] This example illustrates the detection and monitoring of a binding event induced to occur within the cell.
As shown below, this fusion protein was constructed using GFP, a modified nuclear localization signal from SV40 T antigen, the sequence from Proline 315 to Serine 362 of MAPKAP2 (Genbank accession number X76850), which includes a nuclear export signal (between D^328 to E^351, SEQ ID NO:317), and the sequence from P^30 to L^60 of c-Jun,(accession number J04111), which serves as the JNK binding domain.
Protocol: HeLa cells were transiently transfected with the fusion protein. Cells were serum starved for 24 hours prior to treatment. Cells were exposed to test compounds known to induce cell stress, including anisomycin (500 nM), sorbitol (300 mM), TNF (tumor necrosis factor, 100 ng/ml), or staurosporine (1 uM), for 1 hour. For inhibitor treatment, cells were pretreated for 2 hours with 10 uM inhibitor then treated with anisomycin, in parallel with non-inhibitor-treated cells. Cells were then treated with 3.7% formaldehyde & Hoechst 33342 for 20 minutes to fix and stain the nuclei, and then washed. Data was collected on ArrayScan II® (Cellomics, Inc. Pittsburgh, Pa.).

SMILES	inhibition of the change in distribution of the fusion protein [1]	change in localization of the fusion protein to the cytoplasm upon activation [1]	change in localization of the fusion protein to the cytoplasm upon activation [4]	also measured
COc1cccc(-c2cc(=O)c3ccccc3o2)c1N [PD98059]	inhibitable	–	–	–
CCCCCCCCCCCCCC(=O)O[C@@H]1[C@@H](C)[C@@]2(O)[C@@H](C=C(CO)C[C@]3(O)C(=O)C(C)=C[C@@H]23)[C@@H]2C(C)(C)[C@]12OC(C)=O [PMA, Phorbol-12-Myristate-13-Acetate]	–	led to a change in localization of the fusion protein to the cytoplasm	–	change in localization of the fusion protein to the cytoplasm upon activation [2]: led to a change in localization of the fusion protein to the cytoplasm; change in localization of the fusion protein to the cytoplasm upon activation [3]: led to a change in localization of the fusion protein to the cytoplasm
C[S+]([O-])c1ccc(-c2nc(-c3ccncc3)c(-c3ccc(F)cc3)[nH]2)cc1 (stereo not drawn) [SB203580]	not	–	–	effect of inhibitor pretreatment on the change in distribution of the fusion protein ([4]; 2 hours pretreatment with 10 uM inhibitor, then anisomycin): not affected
COc1ccc(C[C@H]2NC[C@H](O)[C@H]2OC(C)=O)cc1 [anisomycin]	–	–	led to a change in localization of the fusion protein to the cytoplasm	–
OC[C@@H](O)[C@@H](O)[C@H](O)[C@@H](O)CO [sorbitol]	–	did not induce a change in the localization of the fusion protein	–	–
CN[C@@H]1C[C@H]2O[C@@](C)([C@@H]1OC)n1c3ccccc3c3c4c(c5c6ccccc6n2c5c31)C(=O)NC4 [staurosporine]	–	–	led to a change in localization of the fusion protein to the cytoplasm	–
